Experimental data from patent publication US20230346785A1, “4-PYRROLIDIN-1-Yl-5-P-TOLYL-THIENO[2,3-D] PYRIMIDINE FOR USE IN THE TREATMENT OF AGING-ASSOCIATED AND PREMATURE AGING DISEASES THROUGH RESTORED CHROMOSOMAL STABILITY AND INHIBITION OF CELLULAR SENESCENCE” (IBMC - INSTITUTO DE BIOLOGIA MOLECULAR E CELULAR, priority 2020, published 2023).

Experiments:
Format in all cases: cell-based
[1] = test system: elderly human dermal fibroblasts (HDF); test: Micronuclei (MN) counts; conditions: 1 µM, 24-hour exposure (FIG. 4F)
Protocol: (§1) Human dermal fibroblasts (HDFs) retrieved from skin samples of neonatal (No. GM21811, Coriell Institute; No. DFM021711A, Zen Bio) and octogenarian (No. AG07135; AG13993; AG09271; AG10884; all from Coriell Institute) were used. All donors were reported as “healthy”. For all experiments, HDFs were seeded at 1x10^4 cells per cm2 of growth area in minimal essential medium Eagle-Earle (MEM) supplemented with 15% fetal bovine serum (FBS), 2 mM L-glutamine, and 1x antibiotic-antimycotic (all from Gibco, Thermo Fisher Scientific). Only early passage dividing fibroblasts (up to passage 3-5) with cumulative population doubling level PDL < 24 were used.
(§2) For image analysis, both live-cell phenotypes (mitotic duration, lagging chromosomes) and fixed-cell experiments (protein intensity, k-fiber intensity, KT distances, FISH, MN counts, cGAS positivity and SA biomarkers) were blindly quantified using ImageJ/Fiji software. […] DNA aggregates co-localizing with cGAS were scored as MN positive for cGAS. For the analysis of SA biomarkers (53bpl/p21 and SA-β-galactosidase), fluorescence intensity thresholds were set and used consistently for all samples within each experiment. […]

[2] = test system: elderly human dermal fibroblasts (HDF); test: Interphase FISH aneusomy index of chromosomes 7, 12 and 18; conditions: 1 µM
Protocol: as §1
For FISH, MN counts, cGAS immunofluorescence and SA biomarkers, images were captured with the IN Cell Analyzer 2000 (GE Healthcare, UK) equipped with a Photometrics CoolSNAP K4 camera and driven by the GE IN Cell Analyzer 2000 v5.2 software, using a Nikon 20x/0.45 NA Plan Fluor objective and a Nikon 40x/0.95 NA Plan Fluor objective, respectively.
1 µM of UMK57 was used to enhance kinesin-13 activity during the time periods indicated for each experiment.
(§3) FISH was used to score aneusomy indexes (Interphase FISH; FIGS. 4D, 5C) and chromosome mis-segregation (MS) rates. MS rates were scored by Cyto-D FISH (FIGS. 4E and 5D), or by FISH on STLC-washed-out fibroblasts (FIGS. 1G,H). […]

[3] = test system: elderly human dermal fibroblasts (HDF); test: Mitotic duration by long-term phase-contrast time-lapse microscopy, elderly cells
Protocol: as §1, §2
(§4) FIG. 4: Small molecule agonist of MCAK activity UMK57 rescues age-associated CIN and delays senescence. […] (D) Aneusomy index of chromosomes 7, 12 and 18 measured by interphase FISH analysis. […]

[4] = test system: elderly human dermal fibroblasts (HDF); test: SA-β-galactosidase activity assay; conditions: 1 µM
Protocol: as §1, §2

[5] = test system: elderly human dermal fibroblasts (HDF); test: 53BP1/p21 double immunostaining senescence biomarkers; conditions: 1 µM
Protocol: as §1
For immunofluorescence, fibroblasts were grown on sterilized glass coverslips coated with 50 µg/ml fibronectin (F1141, Sigma-Aldrich) and fixed with 4% paraformaldehyde in PBS for 20 min. […]
as §2

[6] = test system: neonatal (N) human dermal fibroblasts (HDF); test: Mitotic duration by long-term phase-contrast time-lapse microscopy, neonatal cells; conditions: 1 µM, 24 hrs (FIG. 4A)
Protocol: as §1, §2, §4

[7] = test system: elderly human dermal fibroblasts (HDF); test: Calcium-stable k-fiber intensity analysis in metaphase; conditions: 1 µM
Protocol: Human dermal fibroblasts (HDFs) retrieved from skin samples of neonatal (No. GM21811, Coriell Institute; No. DFM021711A, Zen Bio) and octogenarian (No. AG07135; AG13993; AG09271; AG10884; all from Coriell Institute) were used. All donors were reported as “healthy”. For all experiments, HDFs were seeded at 1x10^4 cells per cm2 of growth area in minimal essential medium Eagle-Earle (MEM) supplemented with 15% fetal bovine serum (FBS), 2 mM L-glutamine, and 1x antibiotic-antimycotic (all from Gibco, Thermo Fisher Scientific). Only early passage dividing fibroblasts (up to passage 3-5) with cumulative population doubling level PDL < 24 were used. […]
In fluorescence microscopy, cells with calcium-stabilized k-fibers or stained for specific kinetochore/centromere-bound proteins (Aurora B/Aim-1, Hec1/Ndc80, MCAK, Plk1, pAuroraB T232 and ACA) were imaged using a Zeiss AxioImager Z1 (Carl Zeiss, Oberkochen, Germany) motorized upright epifluorescence microscope, equipped with an Axiocam MR camera and operated by the Zeiss Axiovision v4.7 software. […]
For image analysis, both live-cell phenotypes (mitotic duration, lagging chromosomes) and fixed-cell experiments (protein intensity, k-fiber intensity, KT distances, FISH, MN counts, cGAS positivity and SA biomarkers) were blindly quantified using ImageJ/Fiji software. […] DNA aggregates co-localizing with cGAS were scored as MN positive for cGAS. […]

[8] = test system: elderly human dermal fibroblasts (HDF); test: Cyto-D FISH chromosome mis-segregation in cytokinesis-blocked binucleated (BN) cells; conditions: 1 µM
Protocol: as §1
Proteasome inhibitor MG-132 (474790, EMD Millipore) was used at 5 µM for 2 hrs to arrest cells at the metaphase stage. Cytochalasin D (C8273, Sigma-Aldrich) was used at 1 µM for 24 hrs to block cytokinesis. Fibroblasts were treated with 2.5 µM STLC (2191, TOCRIS) for 5 hrs to inhibit kinesin-5 activity and induce monopolar spindles, followed by a washout into fresh medium with 500 nM of Aurora kinase B inhibitor ZM447439 (S1103, Selleckchem) to potentiate chromosome segregation errors. […]
as §3

## Cc1ccc(-c2csc3ncnc(N4CCCC4)c23)cc1 [UMK57, 4-Pyrrolidin-1-yl-5-p-tolyl-thieno[2,3-d] pyrimidine]
[1]
  MN (micronuclei) levels: partly decreased
[2]; 24 hrs (FIG. 4D)
  levels of aneuploidy (aneusomy index, interphase FISH): decreases the levels of aneuploidy
[2]; 96 hours (FIG. 5C)
  aneuploidy (interphase FISH): inhibited
[3]; 1 µM, 96-hour treatment (FIG. 5A)
  mitotic delay of elderly cells: rescued
[3]; increasing concentrations, 24-hour time-lapse (FIG. 4A)
  concentration sufficient to rescue the increased mitotic duration in elderly cells: 1 µM
[4]; 24-hour treatment (FIG. 4H)
  percentage of cells exhibiting SA-β-galactosidase activity: partially rescue
[4]; 96 hrs (FIG. 5F)
  senescence markers: SA-β-gal positive cells: partial rescue
[5]; 24-hour treatment (FIG. 4G)
  percentage of cells exhibiting the senescence biomarkers 53bp1+p21: partially rescue
[5]; 96 hrs (FIG. 5E)
  senescence markers: 53BP1/p21 positive cells: partial rescue
[6]
  effect on the mitotic progression of neonatal cultures: no noticeable effect
[7]; 24 hrs (FIG. 4B,C)
  number of stable k-MT attachments in metaphase (calcium-stable k-fiber intensity): decreases the number of stable k-MT attachments in metaphase
[7]; 96 hours (FIG. 5B)
  k-fiber intensity levels in metaphase: decreased k-fiber intensity levels
[8]; 24 hrs, cytochalasin D (FIG. 4E)
  chromosome mis-segregation rate in binucleated (BN) cells: decreases
[8]; 96 hours (FIG. 5D)
  chromosome mis-segregation (BN cells FISH): inhibited
